Counter-ions that a name gives are not always drawn.

Experimental findings from patent US8962608B2, “Cycloalkylnitrile pyrazole carboxamides as janus kinase inhibitors” (Merck Sharp & Dohme Corp., priority 2011, dated 2015) are described below.

Assay [1] addresses JAK1 (recombinant purified GST-tagged catalytic domain) (Homo sapiens (Human), UniProt P23458). The experiment in a line: biochemical.
In assay [2] the target is JAK2 (recombinant purified GST-tagged catalytic domain) (Homo sapiens (Human), UniProt O60674). The assay is described as follows: biochemical.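 Note: biochemical JAK kinase assay with HTRF detection.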
Chain of JAK2 (recombinant purified GST-tagged catalytic domain) (O60674 849-1124): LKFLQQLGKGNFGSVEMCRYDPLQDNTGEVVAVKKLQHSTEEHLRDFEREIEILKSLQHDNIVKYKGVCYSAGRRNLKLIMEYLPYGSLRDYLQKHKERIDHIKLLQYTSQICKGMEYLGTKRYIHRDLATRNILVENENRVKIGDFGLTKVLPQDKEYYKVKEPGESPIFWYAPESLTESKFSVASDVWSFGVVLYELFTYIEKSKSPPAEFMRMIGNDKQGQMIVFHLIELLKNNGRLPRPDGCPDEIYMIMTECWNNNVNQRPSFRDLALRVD

Chain of JAK1 (recombinant purified GST-tagged catalytic domain) (P23458 875-1153): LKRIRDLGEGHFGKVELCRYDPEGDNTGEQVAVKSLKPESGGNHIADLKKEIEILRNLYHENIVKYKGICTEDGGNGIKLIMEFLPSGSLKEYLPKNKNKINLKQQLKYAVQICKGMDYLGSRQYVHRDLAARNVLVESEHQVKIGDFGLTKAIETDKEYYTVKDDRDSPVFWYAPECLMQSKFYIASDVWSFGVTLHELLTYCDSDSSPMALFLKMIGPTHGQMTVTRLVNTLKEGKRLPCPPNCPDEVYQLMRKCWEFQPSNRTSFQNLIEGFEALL

For `N#C[C@H]1CC[C@@H](O)CC1n1cc(C(N)=O)c(Nc2ccccc2)n1` (mixture of isomers) [Example 2-13, 1-[(1S,2S,5R and 1R,2R,5S)-2-cyano-5-hydroxycyclohexyl]-3-(phenylamino)-1H-pyrazole-4-carboxamide], the IC50 in assay [1] is 27 nM; in assay [2] it was 185 nM.
For `N#C[C@@H]1CC(CN)CCC1n1cc(C(N)=O)c(Nc2ccc(F)cc2)n1` (mixture of isomers) [Example 9, 1-((1R,2R and 1S,2S)-4-(Aminomethyl)-2-cyanocyclohexyl)-3-((4-fluorophenyl)amino)-1H-pyrazole-4-carboxamide] the same measures were 12 nM and 247 nM.
In the case of `CN(C)CC1CCC(n2cc(C(N)=O)c(Nc3ccc(F)cc3)n2)[C@H](C#N)C1` (mixture of isomers) [Example 10, 1-((1R,2R and 1S,2S)-2-Cyano-4-((dimethylamino)methyl)cyclohexyl)-3-((4-fluorophenyl)amino)-1H-pyrazole-4-carboxamide], the 50% inhibitory concentration (IC50) in assay [1] amounted to 11 nM; in assay [2], 357 nM.
`N#C[C@H]1C[C@H](O)CCC1n1cc(C(N)=O)c(Nc2ccc(S(=O)(=O)C(F)F)cc2)n1` (mixture of isomers) [Example 14, 1-[(1S,2S,4R and 1R,2R,4S)-2-Cyano-4-hydroxycyclohexyl]-3-({4-[(difluoromethyl)sulfonyl]phenyl}amino)-1H-pyrazole-4-carboxamide]: the half-maximal inhibitory concentration (IC50) amounted to 0.32 nM in assay [1] and 3 nM in assay [2].
Consider `N#C[C@H]1CCCC[C@@H]1n1cc(C(N)=O)c(Nc2ccnc(C(F)(F)F)c2)n1` (racemic) [Example 17-3, 1-[(1S,2S and 1R,2R)-2-Cyanocyclohexyl]-3-{[2-(trifluoromethyl)pyridin-4-yl]amino}-1H-pyrazole-4-carboxamide], for which the concentration for half-maximal inhibition (IC50) in assay [1] was found to be 19 nM; in assay [2], 123 nM.
For the compound `N#Cc1ccc(Nc2nn([C@H]3CCCC[C@@H]3C#N)cc2C(N)=O)cc1` (racemic) [Example 17-5, 1-[(1S,2S and 1R,2R)-2-cyanocyclohexyl]-3-[(4-cyanophenyl)amino]-1H-pyrazole-4-carboxamide], the values for the IC50 in assay [1] and in assay [2] were 1 nM and 9 nM, respectively.
In the case of `Cc1noc(-c2ccc(Nc3nn([C@H]4CCCC[C@@H]4C#N)cc3C(N)=O)cc2)n1` (racemic) [Example 17-6, 1-[(1S,2S and 1R,2S)-2-cyanocyclohexyl]-3-{[4-(3-methyl-1,2,4-oxadiazol-5-yl)phenyl]amino}-1H-pyrazole-4-carboxamide], the IC50 amounted to 4 nM in assay [1] and 25 nM in assay [2].
For `N#C[C@H]1CCCCC1n1cc(C(N)=O)c(Nc2ccc3c(c2)CCC(=O)N3)n1` (mixture of isomers) [Example 17-11, 1-[(1S,2S and 1R,2R)-2-cyanocyclohexyl]-3-[(2-oxo-1,2,3,4-tetrahydroquinolin-6-yl)amino]-1H-pyrazole-4-carboxamide], the IC50 amounted to 2 nM in assay [1] and 8 nM in assay [2].
With `N#Cc1ccc(Nc2nn([C@H]3CCCC[C@H]3C#N)cc2C(N)=O)cc1` (racemic) [Example 17-16, 1-[(1S,2R and 1R,2S)-2-cyanocyclohexyl]-3-[(4-cyanophenyl)amino]-1H-pyrazole-4-carboxamide], the IC50 worked out at 11 nM in assay [1] and 36 nM in assay [2].
In the same order, the values of `N#C[C@H]1CCCC[C@@H]1n1cc(C(N)=O)c(Nc2ccc(S(=O)(=O)C(F)(F)F)c(CO)c2)n1` (racemic) [Example 17-17, 1-[(1S,2S and 1R,2R)-2-cyanocyclohexyl]-3-({3-(hydroxymethyl)-4-[(trifluoromethyl)sulfonyl]phenyl}amino)-1H-pyrazole-4-carboxamide] are 1 nM and 5 nM.
As to `Cn1cc(-c2cc(Nc3nn([C@H]4CCCC[C@@H]4C#N)cc3C(N)=O)ccn2)cn1` (racemic) [Example 17-22, 1-[(1S,2S and 1R,2R)-2-cyanocyclohexyl]-3-{[2-(1-methyl-1H-pyrazol-4-yl)pyridin-4-yl]amino}-1H-pyrazole-4-carboxamide], the figures for the IC50 in assay [1] and in assay [2] were 3 nM and 60 nM, respectively.
With `N#C[C@H]1CCCC[C@@H]1n1cc(C(N)=O)c(Nc2ccc(CN)cc2)n1` (racemic) [Example 17-45, 3-{[4-(aminomethyl)phenyl]amino}-1-[(1S,2S and 1R,2R)-2-cyanocyclohexyl]-1H-pyrazole-4-carboxamide], the half-maximal inhibitory concentration (IC50) in assay [1] is 3 nM; in assay [2], 10 nM.
Regarding `N#C[C@H]1CCCCC1n1cc(C(N)=O)c(Nc2ccc(S(=O)(=O)CF)cc2)n1` (mixture of isomers) [Example 17-65, 1-[(1S,2S and 1R,2R)-2-cyanocyclohexyl]-3-({4-[(fluoromethyl)sulfonyl]phenyl}amino)-1H-pyrazole-4-carboxamide], the concentration for half-maximal inhibition (IC50) was determined as 0.16 nM in assay [1] and 2 nM in assay [2].
For `N#C[C@H]1CCCC[C@@H]1n1cc(C(N)=O)c(Nc2ccc(F)c(F)c2)n1` (racemic) [Example 17-100, 1-[(1S,2S and 1R,2R)-2-cyanocyclohexyl]-3-[(3,4-difluorophenyl)amino]-1H-pyrazole-4-carboxamide] the same measures were 4 nM and 34 nM.
Consider `N#C[C@H]1CCCC[C@@H]1n1cc(C(N)=O)c(Nc2ccc(Cl)cc2)n1` (racemic) [Example 17-104, 3-[(4-chlorophenyl)amino]-1-[(1S,2S and 1R,2R)-2-cyanocyclohexyl]-1H-pyrazole-4-carboxamide], for which the figures for the IC50 in assay [1] and in assay [2] were 2 nM and 25 nM, respectively.
Regarding `Cn1cc(-c2ccc(Nc3nn(C4CCCC[C@@H]4C#N)cc3C(N)=O)cn2)cn1` (mixture of isomers) [Example 21-2, 1-[(1S,2S and 1R,2R)-2-cyanocyclohexyl]-3-{[6-(1-methyl-1H-pyrazol-4-yl)pyridin-3-yl]amino)-1H-pyrazole-4-carboxamide], the half-inhibitory concentration (IC50) in assay [1] stood at 2 nM; in assay [2], 15 nM.
In the same order, the values of `N#C[C@H]1CCCCC1n1cc(C(N)=O)c(Nc2ccc(-c3cn[nH]c3)nc2)n1` (mixture of isomers) [Example 21-3, 1-[(1S,2S and 1R,2R)-2-cyanocyclohexyl]-3-{[6-(1H-pyrazol-4-yl)pyridin-3-yl]amino}-1H-pyrazole-4-carboxamide] are 2 nM and 16 nM.
Consider `N#C[C@H]1CCCC(F)[C@@H]1n1cc(C(N)=O)c(Nc2ccccc2)n1` (mixture of isomers) [Example 23-1, 1-[(1R,2S and 1S,2R)-2-Cyano-6-fluorocyclohexyl]-3-(phenylamino)-1H-pyrazole-4-carboxamide], for which the figures for the IC50 in assay [1] and in assay [2] were 5 nM and 60 nM, respectively.
Take `CN[C@@H]1CCC(n2cc(C(N)=O)c(Nc3ccc(F)cc3)n2)[C@@H](C#N)C1` (mixture of isomers) [Example 27-3, 1-[(1S,2S,4R and 1R,2R,4S)-2-cyano-4-(methylamino)cyclohexyl]-3-[(4-fluorophenyl)amino]-1H-pyrazole-4-carboxamide]: the IC50 amounted to 0.8 nM in assay [1] and 25 nM in assay [2].
On to `CN[C@H]1CCC(n2cc(C(N)=O)c(Nc3ccc(F)cc3)n2)[C@@H](C#N)C1` (mixture of isomers) [Example 27-4, 1-[(1S,2S,4S and 1R,2R,4R)-2-cyano-4-(methylamino)cyclohexyl]-3-[(4-fluorophenyl)amino]-1H-pyrazole-4-carboxamide], for which the figures for the IC50 in assay [1] and in assay [2] were 1 nM and 56 nM, respectively.
For `N#C[C@H]1C[C@@H](N2CCOCC2)CCC1n1cc(C(N)=O)c(Nc2ccc(S(=O)(=O)C(F)(F)F)cc2)n1` (mixture of isomers) [Example 27-13, 1-[(1S,2S,4S and 1R,2R,4R)-2-cyano-4-(morpholin-4-yl)cyclohexyl]-3-({4-[(trifluoromethyl)sulfonyl]phenyl)amino)-1H-pyrazole-4-carboxamide] the same measures were 0.3 nM and 6 nM.
Turning to `N#C[C@H]1C[C@@H](N)CCC1n1cc(C(N)=O)c(Nc2ccc(F)cc2)n1` (mixture of isomers) [Example 29, (1S,3S,4S and 1R,3R,4R)-4-{4-Carbamoyl-3-[(4-fluorophenyl)amino]-1H-pyrazol-1-yl}-3-cyanocyclohexanaminium trifluoroacetate], the IC50 in assay [1] was determined as 1 nM; in assay [2], 35 nM.
Turning to `N#C[C@H]1C[C@@H](OC(=O)NC2CCCCC2)CCC1n1cc(C(N)=O)c(Nc2ccc(F)cc2)n1` (mixture of isomers) [Example 34-2, (1S,3S,4S and 1R,3R,4R)-4-{4-carbamoyl-3-[(4-fluorophenyl)amino]-1H-pyrazol-1-yl}-3-cyanocyclohexyl cyclohexylcarbamate], the 50% inhibitory concentration (IC50) in assay [1] is 5 nM; in assay [2] it was 164 nM.
Consider `N#C[C@H]1C[C@H](OC(=O)NC2CCCCC2)CCC1n1cc(C(N)=O)c(Nc2ccc(F)cc2)n1` (mixture of isomers) [Example 34-5, (1R,3S,4S and 1S,3R,4R)-4-{4-carbamoyl-3-[(4-fluorophenyl)amino]-1H-pyrazol-1-yl}-3-cyanocyclohexyl cyclohexylcarbamate], for which the values for the IC50 in assay [1] and in assay [2] were 7 nM and 88 nM, respectively.
For `CNC(=O)O[C@@H]1CCC(n2cc(C(N)=O)c(Nc3ccc(F)cc3)n2)[C@@H](C#N)C1` (mixture of isomers) [Example 34-6, (1R,3S,4S and 1S,3R,4R)-4-{4-carbamoyl-3-[(4-fluorophenyl)aminol-1H-pyrazol-1-yl}-3-cyanocyclohexyl methylcarbamate] the same measures were 1 nM and 12 nM.
Regarding `CCNC(=O)O[C@@H]1CCC(n2cc(C(N)=O)c(Nc3ccc(F)cc3)n2)[C@@H](C#N)C1` (mixture of isomers) [Example 34-7, (1R,3S,4S and 1S,3R,4R)-4-{4-carbamoyl-3-[(4-fluorophenyl)aminol-1H-pyrazol-1-yl}-3-cyanocyclohexyl ethylcarbamate], the half-maximal inhibitory concentration (IC50) in assay [1] was 0.85 nM; in assay [2], 9 nM.
Turning to `CNC(=O)O[C@H]1CCC(n2cc(C(N)=O)c(Nc3ccc(F)cc3)n2)[C@@H](C#N)C1` (mixture of isomers) [Example 34-9, (1S,3S,4S and 1R,3R,4R)-4-{4-carbamoyl-3-[(4-fluorophenyl)aminol-1H-pyrazol-1-yl}-3-cyanocyclohexyl methylcarbamate], the half-inhibitory concentration (IC50) in assay [1] stood at 3 nM; in assay [2], 51 nM.
